# Source: paper doi:10.1101/2021.12.18.473277v2 (biorxiv, 2022)
# What was measured:
# [1] = biological target: HDAC1 (Homo sapiens, UniProt Q13547); test: continuous fluorogenic AMC assay, progression curves, kobs fit; assay type: biochemical
# [2] = biological target: HDAC3 (with DAD of NCoR2) (Homo sapiens, UniProt O15379); test: fluorogenic activity assay with added InsP6; assay type: biochemical; conditions: activator; stabilises the HDAC3/NCoR2 DAD complex
# HDAC3 (with DAD of NCoR2), sequence (O15379 whole entry): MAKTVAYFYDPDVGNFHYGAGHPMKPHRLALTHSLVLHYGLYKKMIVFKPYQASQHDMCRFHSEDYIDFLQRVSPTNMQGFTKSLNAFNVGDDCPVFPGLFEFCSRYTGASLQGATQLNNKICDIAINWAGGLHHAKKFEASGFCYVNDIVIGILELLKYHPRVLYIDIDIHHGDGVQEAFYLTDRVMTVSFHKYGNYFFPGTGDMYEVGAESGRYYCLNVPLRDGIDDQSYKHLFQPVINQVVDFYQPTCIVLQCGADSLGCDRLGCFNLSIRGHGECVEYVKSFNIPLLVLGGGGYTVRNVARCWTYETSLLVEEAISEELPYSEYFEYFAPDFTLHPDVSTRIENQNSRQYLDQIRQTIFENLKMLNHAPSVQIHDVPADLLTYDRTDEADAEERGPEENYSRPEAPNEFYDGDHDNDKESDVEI
# HDAC3 (with DAD of NCoR2), sequence (Q9Y618 395-489 partner limits assumed): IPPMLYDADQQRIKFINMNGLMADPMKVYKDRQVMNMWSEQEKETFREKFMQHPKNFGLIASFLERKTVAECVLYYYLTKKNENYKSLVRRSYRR
# HDAC1, sequence (Q13547 whole entry): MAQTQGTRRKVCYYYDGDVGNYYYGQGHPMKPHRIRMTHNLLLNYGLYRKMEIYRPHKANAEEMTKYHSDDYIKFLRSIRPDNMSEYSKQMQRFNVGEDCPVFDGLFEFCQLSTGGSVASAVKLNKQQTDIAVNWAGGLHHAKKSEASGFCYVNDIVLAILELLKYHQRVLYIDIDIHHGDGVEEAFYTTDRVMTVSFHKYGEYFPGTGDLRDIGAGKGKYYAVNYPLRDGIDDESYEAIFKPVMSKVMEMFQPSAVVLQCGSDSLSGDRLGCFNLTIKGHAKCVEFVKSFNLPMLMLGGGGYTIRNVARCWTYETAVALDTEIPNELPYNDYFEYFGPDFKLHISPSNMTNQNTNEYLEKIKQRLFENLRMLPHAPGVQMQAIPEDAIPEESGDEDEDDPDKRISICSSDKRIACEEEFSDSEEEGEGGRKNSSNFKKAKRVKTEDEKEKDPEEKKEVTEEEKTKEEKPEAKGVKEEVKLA
SMILES,Ki [1],fluorogenic activity assay with added InsP6 [2]
CCCNNC(=O)c1ccc(CNC(=O)/C=C/c2ccccc2)cc1 [compound 5],~40 nM,
O=P(O)(O)O[C@H]1[C@H](OP(=O)(O)O)[C@@H](OP(=O)(O)O)[C@H](OP(=O)(O)O)[C@@H](OP(=O)(O)O)[C@H]1OP(=O)(O)O [inositol hexaphosphate],,Addition of InsP6 enhanced HDAC activity
